Converted amounts (≈) assume the structure as drawn. Where two headings read alike, the source gives them in different places.
Key:
Pf 3D7 = test system: Pf 3D7; set-up: method as in PMID 34187456; settings: from Hymenostegia afzelii and Endodesmia calophylloides; read-out: IC50 against Pf 3D7; cited from earlier work
[1] = test system: P. falciparum chloroquine-resistant (PfDd2); test: Antiplasmodial SYBR green I based fluorescence assay, chloroquine-resistant strain; assay type: cell-based; settings: Plasmodium falciparum, read-out: PfDd2 IC50 ± SD
From the text: (§1) The cryopreserved chloroquine-sensitive (Pf3D7-(MRA-102)), the multi-resistant (PfDd2) of Plasmodium falciparum, and the promastigote form of Leishmania donovani strains were obtained from BEI Resources (https://www.beiresources.org/ (accessed on 16 February 2019)) and are routinely cultured at the Antimicrobial and Biocontrol Agents Unit, University of Yaoundé I.
(§2) Plasmodium falciparum strains were maintained in 60 mm sterile petri dishes containing complete RPMI 1640 medium [RPMI 1640 (Sigma Aldrich) supplemented with 0.2% sodium bicarbonate (Sigma Aldrich), 0.5% Albumax II (Gibco), 1% hypoxanthine 100X (Gibco, Billings, MT, USA), 25 mM HEPES, and 0.04% gentamicin (Sigma Aldrich)] with fresh O^+ erythrocytes of healthy human volunteers suspended at 4% haematocrit (v/v) and incubated at 37 °C in a 5% CO2 humidified atmosphere. The medium was replaced daily with fresh complete medium to propagate the culture. Ten percent (10%) Giemsa-stained thin blood smears were examined microscopically under immersion oil to monitor cell-cycle transition and parasitaemia.
(§3) A stock solution was prepared at 100 mg/mL for each extract and fraction and at 50 mg/mL for isolated compound in 100% DMSO (Sigma–Aldrich, Munich, Germany). Master plates were then prepared by mixing 2 μL of each stock solution with 198 μL of fresh incomplete RPMI 1 640 culture medium to yield a concentration of 1 mg/mL for extract and fraction and of 0.5 mg/mL (1% DMSO) followed by a 5-fold serial dilution. Extracts and fractions were tested at concentrations ranging from 0.16 to 100 μg/mL, and isolated compounds at concentrations ranging from 0.08 to 50 μg/mL.
(§4) The use of mixed-stage cultures can enable the test molecules to interact with all the three stages (ring, trophozoite, and schizont) found during a 48-h life cycle of P. falciparum in culture. Moreover, starting the experiment with a synchronized ring stage culture provides the advantage of monitoring the growth inhibitory effect of test samples without a rise-up in parasitemia during the ring–trophozoite–schizont transitions. For this particular reason, parasites were synchronized at the ring stage by serial treatment with 5 % sorbitol for two days prior to each experiment with respect to Lambros and Vanderberg, 1979 [44] protocol.
(§5) Drug sensitivity assay was carried out in 96-well microtitration plates using the SYBR green I based fluorescence assay (Smilkstein et al., 2004). […] The fact that human red blood host cells are anucleate allows the use of SYBR green for the proper monitoring of the growth of the malarial parasite.
(§6) The 96 wells flat-bottom assay plates with sorbitol-synchronized ring stage parasites (haematocrit: 1%, parasitaemia: 2%, 90 μL) were incubated in the presence of 10 µL of pre-diluted extracts, fractions, isolated compounds, and reference drugs [Chloroquine and Artemisinin (Sigma–Aldrich, Munich, Germany)] at different triplicate concentrations (100 µg/mL–0.16 µg/mL for extract/fractions and 50 µg/mL–0.08 µg/mL for compounds). After an incubation period of 72 h at 37 °C, 100 μL of the SYBR Green I solution prepared in a lysis buffer (0.2 µL of 10,000× SYBR Green I per mL of lysis buffer) consisting of Tris (20 mM; pH 7.5), EDTA (5 mM), saponin (0.008%; m/v), and Triton X-100 (0.08%; v/v) was added to each well, mixed twice gently with a multi-channel pipette, and incubated in the dark at 37 °C for 1 h. Fluorescence was measured using the microplate reader Infinite M200 (Tecan) at an excitation and emission wavelength of 485 and 538 nm, respectively. […] The data analysis was performed with GraphPad Prism 8.0 software, fitting by nonlinear regression, and concentration–response curves were generated to determine the median inhibitory concentration (IC50) for each sample.
The resistance index (RI) was determined as the ratio of the IC50 of the samples on the multi-resistant strain Dd2 and the IC50 on the chloroquine-sensitive strain 3D7 as reported by Douanla et al..

[2] = test system: L. donovani promastigotes 1S (MHOM/SD/62/1S); test: Antileishmanial resazurin fluorimetric assay on promastigotes; assay type: cell-based, Leishmania donovani; settings: for IC50: Leishmania donovani
Protocol: as §1
Leishmania donovani promastiogtes were cultured in Medium 199 (Sigma, Darmstadt, Germany) supplemented with 10% Heat-Inactivated fetal Bovine Serum (HIFBS) (Sigma, Darmstadt, Germany) and 100 IU/mL penicillin/streptomycin. The culture was maintained in 75 cm^2 cell culture flask at 28 °C and sub-cultured every 72 h.
as §3
The antileishmanial activity of crude extracts, derived fractions, and isolated compounds against cultured L. donovani promastigotes was evaluated using the resazurin fluorimetric assay as described by Siqueira-Neto et al. (2010). Briefly, promastigotes from a logarithmic phase culture (4 × 10^5 cells/mL; 90 μL) were seeded in 96-well microplates and treated with 10 μL of inhibitors at different triplicate concentrations (100 µg/mL–0.16 µg/mL for extract/fractions and 50 µg/mL–0.08 µg/mL for compounds). Plates were incubated for 28 h at 28 °C, followed by the addition of […] resazurin (0.15 mg/mL in DPBS; Sigma, Darmstadt, Germany). The negative and positive controls were, respectively, 0.1% DMSO and amphotericin B (Sigma, Darmstadt, Germany) (10–0.016 μg/mL) treated wells. After an additional incubation for 44 h, plates were then read on a Magelan Infinite M200 fluorescence plate reader (Tecan, Männedorf, Switzerland) at excitation and emission wavelengths of 530 and 590 nm, respectively. For each sample, growth inhibition percentages were calculated with Microsoft Excel Software; then, from the nonlinear regression fit, concentration–response curves were generated to deduce the median inhibitory concentration (IC50) using the GraphPad Prism 8.0 software.

[3] = test system: P. falciparum chloroquine-sensitive (Pf3D7); test: Antiplasmodial SYBR green I based fluorescence assay, chloroquine-sensitive strain; assay type: cell-based; settings: Plasmodium falciparum, read-out: Pf3D7 IC50 ± SD
From the text: as §1, §2, §3, §4, §5, §6

[4] = In vitro cytotoxicity assay (resazurin) on Raw 264.7 macrophage cells; assay type: cell-based, murine; settings: mouse
Protocol: RAW 264.7 cells were obtained from RIKEN BioResource Centre Cell Bank (Tsukuba, Japan) and cultured in Dulbecco’s modified Eagle medium (DMEM) containing 1% penicillin–streptomycin and 10% FBS under 5% CO2 and humidified atmosphere at 37 °C and sub-cultured every 72 h.
as §3
The murine macrophages, Raw 264.7 cells were grown in a T-25 cm^2 flask containing the complete Dulbecco’s modified Eagle’s medium (Sigma–Aldrich, Munich, Germany) supplemented with 10% FBS (Sigma–Aldrich, Munich, Germany), 1% non-essential amino acids, and 1% (v/v) penicillin–streptomycin (Sigma–Aldrich, Munich, Germany) and incubated at 37° in a humidified atmosphere containing 5% CO2. For the experiments, 80–90% confluent cell culture was trypsinized, counted using a Neubauer haemacytometer, and seeded into a 96-well cell culture treated flat-bottomed plate (SARSTEDT, Inc. Newton, NC 28658, USA) at a cell density of 10^4 cells/well. Plates were incubated overnight to allow cell adhesion. Cells were then treated with serially diluted concentrations of crude extract, fractions, and isolated compounds for 48 h. Podophyllotoxin (Sigma–Aldrich, Munich, Germany) was used as positive control with the highest concentration of 10 μM. Afterwards, 10 μL of resazurin solution (0.15 mg/mL prepared in PBS) was added to each well, and the plates were additionally incubated for 4 h. Of important note, resazurin is a nonfluorescent, nontoxic, and cell-permeable blue dye which is used to quantify cell viability following its conversion into the highly fluorescent pink dye resorufin in response to changes in the reducing environment within the cytosol of the cell. The level of fluorescence that positively correlates with cell viability was measured using a Magellan Infinite M200 plate reader (Tecan, Germany) at an excitation wavelength of 530 nm and an emission wavelength of 590 nm. The growth proliferation percentage of cells was calculated with respect to the negative control. The concentration–response curves were plotted using inhibitory percentages versus the logarithm of the drug concentration to determine the concentration of drug that reduces cell viability by 50% (CC50) using GraphPad Prism 8.0 software. Selectivity indices (SI) [SI = CC50/IC50] were determined for each inhibitor based on their antiparasitic activity (IC50) and cell cytotoxicity (CC50 on Raw cells). Samples with SI greater than 10 were classified as poorly toxic toward Raw cells.

PfDd2 = test system: PfDd2; set-up: method as in PMID 34187456; settings: from Hymenostegia afzelii and Endodesmia calophylloides; read-out: IC50 against PfDd2; cited from earlier work
Leishmania = test system: Leishmania; set-up: method as in PMID 30663371; settings: another study; cited from earlier work
cholinesterase = target: cholinesterase; set-up: method as in PMID 24949478; settings: cited from earlier work
[5] = test system: Leishmania donovani strain MHOM/IN/1983/AG83; set-up: method as in PMID 24949478; settings: scopoletin from leaves of Canarium patentinervium; cited from earlier work
Leishmania donovani [6] = test system: Leishmania donovani; set-up: method as in PMID 24802987, PMID 36399160; settings: cited from earlier work
Leishmania donovani [7] = test system: Leishmania donovani; set-up: method as in PMID 24802987, PMID 36399160; settings: cited from earlier work; remark: listed apart in the source
leishmania promastigotes = test system: leishmania promastigotes; set-up: method as in PMID 31085212; settings: β-sitosterol from Ifloga spicata; cited from earlier work
[8] = chloroquine-resistant strain Dd2, 72 h
[9] = promastigotes, resazurin assay, read-out: L. donovani Promastigote IC50 ± SD
[10] = chloroquine-sensitive strain 3D7, 72 h
[11] = read-out: L. donovani Promastigote IC50 ± SD, promastigotes, resazurin assay
[12] = Raw 264.7 macrophages, 48 h treatment, resazurin, read-out: Cytotoxicity Raw Cells CC50 ± SD

Structure (SMILES): COc1c(O)cc2c(=O)oc3c(OC)c(O)cc4c(=O)oc1c2c34 [3,3′-Dimethylellagic acid (4), 3,3′-dimethylellagic acid]
- IC50 (Pf 3D7): 4270 nM
- IC50 [1, 8]: > 50 µg/mL
- IC50 [2, 9]: 8.07 ± 0.9 µg/mL (≈ 24.4 µM)
- IC50 [3, 10]: > 50 µg/mL
- CC50 at 48 h [4]: > 500 µg/mL
- IC50 (PfDd2): 1360 nM

Structure (SMILES): C[C@@H]1[C@H](O)[C@@H](C)/C=C/C=C/C=C/C=C/C=C/C=C/C=C/[C@H](O[C@@H]2O[C@H](C)[C@@H](O)[C@H](N)[C@@H]2O)C[C@@H]2O[C@](O)(C[C@@H](O)C[C@@H](O)[C@H](O)CC[C@@H](O)C[C@@H](O)CC(=O)O[C@H]1C)C[C@H](O)[C@H]2C(=O)O [Amphotericin B, amphotericin B, reference compound]
- IC50 [2, 9]: 2.9 ± 0.46 µg/mL (≈ 3.14 µM)

Structure (SMILES): CCCCCCCC=CCCCCCCCCCCCCCC(O)C(O)C(COC1OC(CO)C(O)C(O)C1O)NC(=O)C(O)CCCCCCCCCCCCCC [Antroklaicerebroside (1), (2S,3S,4R,2′R,18E)N-((-3,4-dihydroxy-β-D-gluco-pyranosyl)oxy)hexacos-18-en-2-yl)-2-hydroxyhexadecanamide]
- melting point: 184 to 186 °C
- IC50 [1, 8]: > 50 µg/mL
- IC50 [2, 9]: 6.19 ± 0.79 µg/mL (≈ 7.33 µM)
- IC50 [3, 10]: 42.04 ± 0.08 µg/mL
- CC50 at 48 h [4]: > 500 µg/mL

Structure (SMILES): C[C@@H]1CC[C@H]2[C@@H](C)C(=O)O[C@@H]3O[C@@]4(C)CC[C@@H]1[C@]32OO4 [Artemesin, Artemisinin, reference compound]
- IC50 ([1]; chloroquine-resistant strain Dd2, 72 h, reference drugs in µM): 23.7 ± 0.24 µM
- IC50 ([3]; chloroquine-sensitive strain 3D7, 72 h, reference drugs in µM): 0.02 µM

Structure (SMILES): CCN(CC)CCCC(C)Nc1ccnc2cc(Cl)ccc12 (stereo not shown) [Chloroquine, reference compound]
- IC50 ([1]; DD2, 72 h): 21.7 ± 0.25 µM
- IC50 ([3]; 3D7, 72 h): 0.85 ± 0.01 µM

Structure (SMILES): O=c1ccc2cc(O)c(O)cc2o1 [Esculetin (2), 6,7-dihydroxycoumarin]
- IC50 [1, 8]: 9.3 ± 0.29 µg/mL
- IC50 [2, 9]: > 50 µg/mL
- IC50 [3, 10]: 45.57 ± 0.08 µg/mL
- CC50 at 48 h [4]: > 500 µg/mL

Structure (SMILES): COc1cc([C@@H]2c3cc4c(cc3[C@H](O)[C@H]3COC(=O)[C@H]23)OCO4)cc(OC)c1OC [Podophyllotoxin, reference compound]
- CC50 at 48 h ([4]; Raw 264.7 macrophages, positive control, unit µM, read-out: Cytotoxicity Raw Cells CC50 ± SD): 0.71 ± 0.2 µM

Structure (SMILES): COc1cc2ccc(=O)oc2cc1O [Scopoletin (3), 7-hydroxy-6-methoxycoumarin]
- antileishmanial activity IC50 (Leishmania): 6.804 µg/mL
- IC50 [1, 8]: > 50 µg/mL
- IC50 [2, 9]: 6.4 ± 0.8 µg/mL (≈ 33.3 µM)
- anticholinesterase activity IC50 (cholinesterase): 51 µg/mL
- IC50 [3, 10]: > 50 µg/mL
- CC50 at 48 h [4]: > 500 µg/mL
- IC50 against Leishmania donovani strain MHOM/IN/1983/AG83 [5]: 163.3 µg/mL (≈ 850 µM)

Structure (SMILES): CC[C@H](/C=C/[C@@H](C)[C@H]1CC[C@H]2[C@@H]3CC=C4C[C@@H](O)CC[C@]4(C)[C@H]3CC[C@]12C)C(C)C [Stigmasterol (6), stigmasterol]
- IC50 ([1]; DD2, 72 h): > 50 µg/mL
- IC50 [2, 11]: 8.07 ± 0.9 µg/mL (≈ 19.6 µM)
- L. donovani Promastigote IC50 ± SD ([2]; promastigotes, resazurin assay): 9.14 ± 0.96 µg/mL
- IC50 ([3]; 3D7, 72 h): > 50 µg/mL
- CC50 at 48 h [4, 12]: > 500 µg/mL

Structure (SMILES): O=c1oc2c(O)c(O)cc3c(=O)oc4c(O)c(O)cc1c4c23 [ellagic acid]
- in vitro effect against Leishmania donovani (Leishmania donovani [6]): exhibited an in vitro effect
- parasitemia in in vivo antileishmanial mouse model (Leishmania donovani [7]): significatively reduced parasitemia

Structure (SMILES): CC[C@H](CC[C@@H](C)[C@H]1CC[C@H]2[C@@H]3CC=C4C[C@@H](O)CC[C@]4(C)[C@H]3CC[C@]12C)C(C)C [β-sitosterol (5), β-sitosterol]
- IC50 ([1]; DD2, 72 h): > 50 µg/mL
- IC50 [2, 11]: 5.56 ± 0.74 µg/mL (≈ 13.4 µM)
- IC50 ([3]; 3D7, 72 h): 45.3 ± 1.66 µg/mL
- CC50 at 48 h [4, 12]: > 500 µg/mL
- IC50 against leishmania promastigotes (leishmania promastigotes): 9.2 ± 0.06 µg/mL (≈ 22.2 µM)

From paper PMC10059057, “Antileishmanial and Antiplasmodial Activities of Secondary Metabolites from the Root of Antrocaryon klaineanum Pierre (Anacardiaceae)” (Molecules, 2023)
